# Test results taken from patent US9877966B1, “Combination therapy for the inhibition of metastasis and tumorigenesis” (priority 2015, dated 2018).
# Legend:
# Format in all cases: cell-based, human
# PC3M cells = assay: Soft agar colony formation assay (anchorage independent growth)
# Description: Compound 2 was tested for its ability to affect anchorage independent growth in a soft agar assay, a stringent method to detect malignant transformation of cells in vitro.
# [1] = system: PNC prevalence in PC3M cell line stably expressing GFP-PTB; assay: High content assay for PNC detection (reduction of PNC prevalence); details: Table 4; PC3M GFP-PTB cells, 16 hrs
# Text: The quantitative output for this assay is the reduction of PNC prevalence. The PNC can be detected in living cells by the expression of a green fluorescent protein (GFP) tagged to the PNC localized protein, PTB. A PC3M cell line was used that stably expresses GFP-PTB to mark PNCs. This method eliminates the need for immunofluorescent staining.
# The IN Cell Analyzer 1000 automated fluorescent imaging system (GE Healthcare, Piscataway, N.J.) was used for automated image acquisition. […] The instrument acquired images of each well in a 1536-well plate with a laser-based autofocus system. To score PNC prevalence in a high-content throughput, the Multi-Target Analysis (MTA) algorithm (GE Healthcare, Investigator v3.5) to identify individual cells and granules (PNCs) within these cells was used. The nucleus was segmented via a region growing method (50 μm^2 minimum area) with light shading and noise removal to allow “touching” nuclei to be separated. […] For this particular assay, PNC-positive cells were scored when 1 to 3 PNC granules were detected per nucleus. Cells that contained 0 granules were scored as PNC negative, and cells with >3 granules were assumed to be false positives (very few cells have more than 3 PNCs in one focus plane), and were also scored as PNC negative.
# [2] = system: PC3M reporter cell line stably expressing PTB-GFP (ATP levels); assay: ATP quantitation assay (ATPLite); details: Table 4, PC3M cells, 24 hrs
# Description: This follow-up assay was conducted to measure the effect of compounds on cell health by measuring ATP levels (ATPLite™). ATPLite™ is an ATP monitoring system based on firefly (Photinus pyralis) luciferase. The level of ATP in a metabolically active cell is a general marker for its viability. ATP levels are often reduced during necrosis or apoptosis. In this assay, the luciferase enzyme catalyzes the conversion of the added substrate D-luciferin to oxyluciferin and light with ATP. Thus, the emitted light is proportional to the ATP concentration. For this assay, the highly metastatic PC3M reporter cell line stably expressing the PTB-GFP was provided by Professor Sui Huang of Northwestern University. The media and cell culture reagents were purchased from Invitrogen (Carlsbad, Calif.), ATPLite™ came from PerkinElmer.
PNC IC50 [1],ATP IC50 [2],SMILES,"cell viability (PC3M cells; soft agar assay, 3.8, 18.6 nM)","number of colonies (anchorage independent growth) (PC3M cells; soft agar, after 14 days, 3.8, 18.6 nM)"
–,–,"N=c1c2c(-c3ccccc3)c(-c3ccccc3)n(Cc3ccccc3)c2ncn1[C@H]1CC[C@H](O)CC1 [Compound 2, trans-4-(7-Benzyl-4-imino-5,6-diphenyl-4,7-dihydro-3H-pyrrolo[2,3-d]pyrimidin-3-yl)cyclohexanol]",no impact on cell viability,dose dependent reduction in the number of colonies
inactive,inactive,COC(=O)C[C@H](C(=O)OC)n1ncc2c(c(-c3ccccc3)cn2Cc2ccc(Br)cc2)c1=N [Compound 114],–,–
